The text below walks through data of patent US20230183218A1, “CONDENSED SUBSTITUTED HYDROPYRROLES AS ANTAGONISTS OF THE MUSCARINIC ACETYLCHOLINE RECEPTOR M4” (Vanderbilt University, priority 2020, published 2023).

pIC50: −log10 of the molar value. Like-named read-outs stand apart in the source and are kept apart here.

In assay [1] the test system is haloperidol-induced catalepsy. The settings on record: cited from earlier work.
In the next assay the test system is locomotor activity. Conditions: M4 knockout mice, but not the other four mAChR subtypes (M1-3,5); cited from earlier work.
For the next assay, the target named is T1, Rat M4 (Rattus norvegicus, UniProt P08485).
T1 construct: expressed in transfected cells; host or cells: CHO-K1 (ATCC), stably co-expressing chimeric G protein Gqi5
T1 sequence (P08485 1-478): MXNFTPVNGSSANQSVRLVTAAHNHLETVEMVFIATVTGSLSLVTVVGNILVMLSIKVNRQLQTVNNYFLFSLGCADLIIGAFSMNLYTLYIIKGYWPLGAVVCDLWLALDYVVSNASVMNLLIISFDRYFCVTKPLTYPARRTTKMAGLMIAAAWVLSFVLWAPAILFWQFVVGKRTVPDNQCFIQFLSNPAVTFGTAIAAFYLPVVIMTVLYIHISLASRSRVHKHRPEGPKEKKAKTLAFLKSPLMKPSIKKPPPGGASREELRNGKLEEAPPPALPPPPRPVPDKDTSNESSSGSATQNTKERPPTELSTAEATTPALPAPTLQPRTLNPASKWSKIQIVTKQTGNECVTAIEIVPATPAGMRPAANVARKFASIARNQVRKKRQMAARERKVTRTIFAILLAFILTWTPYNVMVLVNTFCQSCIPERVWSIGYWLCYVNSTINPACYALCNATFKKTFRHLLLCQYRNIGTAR
Put plainly: mAChR M4 cell-based functional assay (calcium flux, antagonist mode vs EC80 acetylcholine), rat M4/Gqi5/CHO-K1 cells. Conditions: for remaining activity at 30 µM: CHO-K1, % ACh maximum at 30 μM, rat M4, read-out: Rat M4 Emin (%); for pIC50: decrease of response elicited by EC80 acetylcholine, rat M4/Gqi5 CHO-K1 cells. In short, it runs like this:
(§1)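 CHO-K1 cells stably expressing human or rat M4 with Gqi5, Fluo-4 loaded; calcium measured by fluorescence ratio on FDSS. Compound added, then EC20 acetylcholine at 143 s and EC80 at 268 s; IC50 from decrease of EC80 response, four-parameter logistic fit.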
For orientation: Calcium flux is commonly read through the fluorescence of an indicator in the cells.

For another assay, the target named is T2, Human M4 (Homo sapiens, UniProt P08173).
T2 construct: expressed in transfected cells; host or cells: CHO-K1 (ATCC), stably co-expressing chimeric G protein Gqi5
T2 sequence (P08173 1-479): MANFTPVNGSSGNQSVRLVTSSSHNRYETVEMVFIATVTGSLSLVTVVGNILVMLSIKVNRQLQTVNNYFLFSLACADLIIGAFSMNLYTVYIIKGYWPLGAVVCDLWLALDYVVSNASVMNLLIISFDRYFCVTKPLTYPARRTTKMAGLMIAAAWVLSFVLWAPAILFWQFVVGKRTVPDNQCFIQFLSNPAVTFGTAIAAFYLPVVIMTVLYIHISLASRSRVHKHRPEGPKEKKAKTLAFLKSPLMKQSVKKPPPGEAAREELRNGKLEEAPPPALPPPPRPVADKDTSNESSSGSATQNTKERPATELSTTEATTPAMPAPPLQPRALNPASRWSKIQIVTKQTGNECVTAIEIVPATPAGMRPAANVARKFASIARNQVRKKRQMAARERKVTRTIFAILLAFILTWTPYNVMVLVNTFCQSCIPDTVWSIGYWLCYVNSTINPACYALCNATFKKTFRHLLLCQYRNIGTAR
Put plainly: mAChR M4 cell-based functional assay (calcium flux, antagonist mode vs EC80 acetylcholine), human M4/Gqi5/CHO-K1 cells. The settings on record: for remaining activity at 30 µM: CHO-K1, % ACh maximum at 30 μM, human M4, read-out: Human M4 Emin (%); for pIC50: decrease of response elicited by EC80 acetylcholine, human M4/Gqi5 CHO-K1 cells. Put shortly:
as §1

Regarding `CN1[C@@H]2C[C@@H](OC(=O)[C@H](CO)c3ccccc3)C[C@H]1[C@@H]1O[C@@H]12` [scopolamine], the “reversal of haloperidol-induced catalepsy” value in assay [1] (M4KO mice) is on record as “ineffective in reducing catalepsy”; in assay [1] (WT mice), “completely reversed”. In the assay with locomotor activity, the locomotor-activating effects entry is reported as “dramatically reduced”.

`Cc1cc(CN2C[C@H]3C[C@H](Nc4ccc(S(=O)(=O)c5ccccc5)nn4)C[C@H]3C2)nn1C` [compound 24, (3aR,5s,6aS)-2-((1,5-dimethyl-1H-pyrazol-3-yl)methyl)-N-(6-(phenylsulfonyl)pyridazin-3-yl)octahydrocyclopenta[c]pyrrol-5-amine]: at Rat M4, the remaining activity at 30 µM came out at 35% and the pIC50 (in general, the IC50 on a negative log10 scale, so that one unit is a factor of ten) was below 5.00. Besides, at Human M4, the remaining activity at 30 µM came to 8% and the pIC50 is 6.04.

With `CC(C)(O)CN1C[C@H]2C[C@H](Nc3ccc(-c4cc(F)ccc4Cl)nn3)C[C@H]2C1` [compound 73, 1-((3aR,5s,6aS)-5-((6-(2-Chloro-5-fluorophenyl)pyridazin-3-yl)amino)hexahydrocyclopenta[c]pyrrol-2(1H)-yl)-2-methylpropan-2-ol], on Rat M4, the remaining activity at 30 µM was found to be 8% and the pIC50 was 5.87. Moreover, at Human M4, the remaining activity at 30 µM is 3% and the pIC50 is 7.87.

On to `O=C(Nc1ccccc1)c1ccc(N[C@H]2C[C@@H]3CN(CC4CCOCC4)C[C@@H]3C2)nn1` [compound 7, N-phenyl-6-(((3aR,5s,6aS)-2-((tetrahydro-2H-pyran-4-yl)methyl)octahydrocyclopenta[c]pyrrol-5-yl)amino)pyridazine-3-carboxamide], for which the remaining activity at 30 µM on Rat M4 amounted to 22%; on Human M4 it was 4%. In addition, the negative logarithm of the IC50 (pIC50) is below 5.00 at Rat M4 and 6.24 at Human M4.

Take `CC1(C)CC(N2C[C@H]3C[C@H](Nc4ccc(-c5cccc(F)c5)nn4)C[C@H]3C2)CCO1` (stereo partly drawn) [compound 53, (3aR,5s,6aS)-2-(2,2-dimethyltetrahydro-2H-pyran-4-yl)-N-(6-(3-fluorophenyl)pyridazin-3-yl)octahydrocyclopenta[c]pyrrol-5-amine]: on Rat M4, the remaining activity at 30 µM is 5% and the pIC50 was 6.53. For the same compound, at Human M4, the remaining activity at 30 µM came out at 3% and the pIC50 was 8.03.

`Fc1ccc(Cl)c(-c2ccc(N[C@H]3C[C@@H]4CN(C5CCCC5)C[C@@H]4C3)nn2)c1` [compound 74, (3aR,5s,6aS)-N-(6-(2-chloro-5-fluorophenyl)pyridazin-3-yl)-2-cyclopentyloctahydrocyclopenta[c]pyrrol-5-amine]: the remaining activity at 30 µM at Rat M4 came to 4%; on Human M4 it was 2%. The pIC50 is 6.03 at Rat M4 and 7.56 on Human M4.

With `CC1(C)CC(N2C[C@H]3C[C@H](Nc4ccc(-c5ccccc5F)nn4)C[C@H]3C2)CCO1` (stereo partly drawn) [compound 52, (3aR,5s,6aS)-2-(2,2-dimethyltetrahydro-2H-pyran-4-yl)-N-(6-(2-fluorophenyl)pyridazin-3-yl)octahydrocyclopenta[c]pyrrol-5-amine], on Rat M4, the remaining activity at 30 µM turned out to be 6% and the negative-log IC50 (pIC50) was 6.11. Further, at Human M4, the remaining activity at 30 µM worked out at 3% and the pIC50 is 7.92.

For `O=S(=O)(c1ccc(N[C@H]2C[C@@H]3CN(CC4(O)CCOCC4)C[C@@H]3C2)nn1)C1CCCCC1` [compound 46, 4-(((3aR,5s,6aS)-5-((6-(cyclohexylsulfonyl)pyridazin-3-yl)amino)hexahydrocyclopenta[c]pyrrol-2(1H)-yl)methyl)tetrahydro-2H-pyran-4-ol], at Rat M4, the remaining activity at 30 µM was 27% and the pIC50 was below 5.00. At Human M4, the remaining activity at 30 µM was 9% and the pIC50 was 5.91.

Regarding `Cc1cc(CN2C[C@H]3C[C@H](Nc4ccc(S(=O)(=O)C5CCCCC5)nn4)C[C@H]3C2)nn1C` [compound 35, (3aR,5s,6aS)-N-(6-(cyclohexylsulfonyl)pyridazin-3-yl)-2-((1,5-dimethyl-1H-pyrazol-3-yl)methyl)octahydrocyclopenta[c]pyrrol-5-amine], at Rat M4, the remaining activity at 30 µM was 19% and the pIC50 was 5.32. Moreover, on Human M4, the remaining activity at 30 µM came out at 6% and the pIC50 was 6.74.
